Laboratory results taken from ChEMBL document CHEMBL1201862, “PubChem BioAssay data set” (2004).
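48-hour exposure; five concentrations; linearly interpolated endpoints. GI50 marks 50% less growth.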 Active and inactive are the calls of the source. No stated cut-off is given here; in the data, active = GI50 up to about 1.1 µM and inactive = higher.

Assays:
Test in all cases: NCI-60 cell line screen, 48 h
786-0 = system: 786-0
A498 = system: A498
A549 = system: A549
ACHN = system: ACHN
BT-549 = system: BT-549
CAKI-1 = system: CAKI-1
CCRF-CEM = system: CCRF-CEM
COLO 205 = system: COLO 205
DU-145 = system: DU-145
EKVX = system: EKVX
HCC 2998 = system: HCC 2998
HCT-116 = system: HCT-116
HCT-15 = system: HCT-15
HL-60 = system: HL-60
HOP-62 = system: HOP-62
HOP-92 = system: HOP-92
HT-29 = system: HT-29
Hs-578T = system: Hs-578T
IGROV-1 = system: IGROV-1
K562 = system: K562
KM12 = system: KM12
LOX IMVI = system: LOX IMVI
M14 = system: M14
MCF7 = system: MCF7
MDA-MB-231 = system: MDA-MB-231
MDA-MB-435 = system: MDA-MB-435
MDA-N = system: MDA-N
MOLT-4 = system: MOLT-4
Malme-3M = system: Malme-3M
NCI-H226 = system: NCI-H226
NCI-H23 = system: NCI-H23
NCI-H460 = system: NCI-H460
NCI-H522 = system: NCI-H522
NCI/ADR-RES = system: NCI/ADR-RES
OVCAR-3 = system: OVCAR-3
OVCAR-4 = system: OVCAR-4
OVCAR-5 = system: OVCAR-5
OVCAR-8 = system: OVCAR-8
PC-3 = system: PC-3
SF-268 = system: SF-268
SF-295 = system: SF-295
SF-539 = system: SF-539
SK-MEL-2 = system: SK-MEL-2
SK-MEL-5 = system: SK-MEL-5
SK-OV-3 = system: SK-OV-3
SN12C = system: SN12C
SNB-19 = system: SNB-19
SNB-75 = system: SNB-75
SR = system: SR
SW-620 = system: SW-620
T47D = system: T47D
TK-10 = system: TK-10
U-251 = system: U-251
UACC-257 = system: UACC-257
UACC-62 = system: UACC-62
UO-31 = system: UO-31

`C[N+](C)(CCNc1ccc(NCC[N+](C)(C)Cc2ccc([N+](=O)[O-])cc2)c2c1C(=O)c1ccccc1C2=O)Cc1ccc([N+](=O)[O-])cc1` was tested, and the GI50 (786-0) was > 100 µM (inactive), the GI50 (A498) was > 100 µM (inactive) and the GI50 (A549) was > 100 µM (inactive). The GI50 (ACHN) was > 100 µM (inactive), the GI50 (BT-549) was > 100 µM (inactive) and the GI50 (CAKI-1) was > 100 µM (inactive). The GI50 (CCRF-CEM) was > 100 µM (inactive), the GI50 (COLO 205) was > 100 µM (inactive) and the GI50 (DU-145) was > 100 µM (inactive). The GI50 (EKVX) was > 100 µM (inactive), the GI50 (HCC 2998) was > 100 µM (inactive) and the GI50 (HCT-116) was > 100 µM (inactive). The GI50 (HCT-15) was over 100 µM, the GI50 (HL-60) was > 100 µM (inactive) and the GI50 (HOP-62) was > 100 µM (inactive). The GI50 (HOP-92) was > 100 µM (inactive), the GI50 (HT-29) was > 100 µM (inactive) and the GI50 (Hs-578T) was > 100 µM (inactive). For the same compound, the GI50 (IGROV-1) was > 100 µM (inactive), the GI50 (K562) was 70.3 µM (inactive) and the GI50 (KM12) was > 100 µM (inactive). For the same compound, the GI50 (LOX IMVI) was > 100 µM (inactive), the GI50 (M14) was > 100 µM (inactive) and the GI50 (MCF7) was > 100 µM (inactive). For the same compound, the GI50 (MDA-MB-231) was > 100 µM (inactive), the GI50 (MDA-MB-435) was > 100 µM (inactive) and the GI50 (MDA-N) was > 100 µM (inactive). The GI50 (MOLT-4) was > 100 µM (inactive), the GI50 (Malme-3M) was > 100 µM (inactive) and the GI50 (NCI-H226) was > 100 µM (inactive). For the same compound, the GI50 (NCI-H23) was > 100 µM (inactive), the GI50 (NCI-H460) was > 100 µM (inactive) and the GI50 (NCI-H522) was > 100 µM (inactive). The GI50 (NCI/ADR-RES) was > 100 µM (inactive), the GI50 (OVCAR-3) was > 100 µM (inactive) and the GI50 (OVCAR-4) was > 100 µM (inactive). For the same compound, the GI50 (OVCAR-5) was > 100 µM (inactive), the GI50 (OVCAR-8) was > 100 µM (inactive) and the GI50 (PC-3) was > 100 µM (inactive). For the same compound, the GI50 (SF-268) was > 100 µM (inactive), the GI50 (SF-295) was > 100 µM (inactive) and the GI50 (SF-539) was > 100 µM (inactive). The GI50 (SK-MEL-2) was > 100 µM (inactive), the GI50 (SK-MEL-5) was > 100 µM (inactive) and the GI50 (SK-OV-3) was > 100 µM (inactive). The GI50 (SN12C) was > 100 µM (inactive), the GI50 (SNB-19) was > 100 µM (inactive) and the GI50 (SNB-75) was > 100 µM (inactive). The GI50 (SR) was > 100 µM (inactive), the GI50 (SW-620) was > 100 µM (inactive) and the GI50 (T47D) was > 100 µM (inactive). The GI50 (TK-10) was > 100 µM (inactive), the GI50 (U-251) was > 100 µM (inactive) and the GI50 (UACC-257) was > 100 µM (inactive). The GI50 (UACC-62) was > 100 µM (inactive) and the GI50 (UO-31) was > 100 µM (inactive).
